According to publication PMC11549461, “Stability of immobilized L-arginine deiminase from Penicillium chrysogenum and evaluation of its anticancer activity” (Scientific Reports, 2024):

Test system: L-arginine deiminase (ADI)
Assay: Lineweaver-Burk plot; ammonia release with Nessler's reagent
Assay type: biochemical, Penicillium chrysogenum
Conditions: free enzyme; pH and temperature of the kinetic assay not given

## N=C(N)NCCC[C@H](N)C(=O)O [L-arginine]
  Km: 760 µM
